The values that follow come from patent publication US8747912B2, “Drug delivery system” (Isis Innovation Limited, priority 2000, dated 2014).

SMILES strings stand for the structures.

The nature of this data set: Release of the drugs from their intercalation compounds in phosphate buffer solution at 37° C. The format is physicochemical. As to conditions: stirred at 1000 rpm, intercalate in [LiAl2(OH)6]Cl.H2O, UV of filtrate. The procedure: Release of the drugs from their intercalation compounds was performed in each case by the addition of 0.0250 g-0.100 g of the intercalation compound to 250 mL phosphate buffer solution at 37° C. […] The release in phosphate buffer at pH 7 and at pH 4 was investigated. Aliquots were removed from the flask at regular time intervals, the solution was filtered and the UV spectrum of the filtrate recorded in a […] quartz cuvette. A baseline scan using the neat solution was recorded prior to the collection of the first spectrum of the filtrate.

With `O=C(O)Cc1ccc(-c2ccccc2)cc1` [4-biphenylacetic acid], the “release of the drug from its intercalation compound” value (“release of the drug” for short) (phosphate buffer pH 4, 37° C.) was “rapid”; the “release of the drug” value (phosphate buffer pH 7, 37° C.) is “slower and more controlled”.
Regarding `O=C([O-])Cc1ccccc1Nc1c(Cl)cccc1Cl.[Na+]` [Diclofenac, sodium (2-(2,6-dichloroanilino)phenyl)acetate], the “release of the drug” value was “rapid” (phosphate buffer pH 4, 37° C.); “slower and more controlled” (phosphate buffer pH 7, 37° C.).
Turning to `COc1ccc2cc([C@H](C)C(=O)O)ccc2c1` [Naproxen, (+)-2-(6-methoxy-2-naphthyl)propionic acid], the “release of the drug” value was “rapid” (phosphate buffer pH 4, 37° C.); “slower and more controlled” (phosphate buffer pH 7, 37° C.).
